Laboratory results reported in patent US20160037782A1, “COMBINATIONS OF ANTIFUNGAL COMPOUNDS AND TEA TREE OIL” (priority 2011, published 2016).

Experiments:
coffee plant rust = test: Coffee plant rust: compositions applied to coffee plant leaves, degree and severity of infection observed later (Example 1); type: in vivo, Hemileia vastatrix; conditions: applied alone
Experimental: The effect of application of a TTO-containing composition (Timorex Gold®), alone and in combination with tebuconazole (simultaneous and in alternation), on coffee plant rust, was tested, by applying the compositions to coffee plant leaves and observing the degree and severity of infection later.

rust in garlic plants = test: Control of rust in organically grown garlic plants, field spray trial (Example 2); type: in vivo, Puccinia alli; conditions: 0.25%
Experimental: Organically grown garlic plants were treated with a 53.8% copper hydroxide solution, Timorex Gold, or a mixture of the two. The plants were sprayed six times, on the first day of the trial and then approximately every six days thereafter. Observations were made on days 1 (before spraying), 29 and 40 of the trial. The results are shown in the table below; d.a.a.=days after application; numbers are presented as % of disease severity on leaves. The effectiveness may have been comprised by the relatively large amount of rain that fell during the trial.
(§1) Treatments were applied in a randomized complete block, with 5 replications per treatment. Plot size in each instance was of 6 m length, containing 20 plants. Fungicidal treatment was applied using backpack sprayer equipped with a mist blower (STHIL 340) to spray a volume of 300 liter/ha. Disease severity was evaluated by determining the leaf area covered with rust (disease severity) on each of 20 leaves randomly selected per each replicate. To analyze the results, an arc-sin transformation was performed on the raw data, and analysis of variance (ANOVA) using the SAS GLM procedure was applied to the transformed data. The Tukey-Kramer Test was applied to determine whether differences between treatments were significant. In the tables, “a”, “b” and “c”, refer to differences in statistical analysis that are familiar to users of the Tukey-Kramer test.

rust in green onions = test: Control of rust in organically grown green onions, field spray trial (Example 3); type: in vivo, Puccinia alli; conditions: 2.5 g/l
Experimental: as §1
In a manner similar to that in Example 2, the effect of TG and the copper hydroxide solution were tested on organically grown green onions, by application at a rate of 500 l/ha.

[1] = 4th evaluation, 1 day after 5th treatment
[2] = 5th evaluation, on day of 7th treatment
[3] = 6th evaluation, 7 days after 7th treatment
[4] = second evaluation, 2 days after second treatment
[5] = third evaluation, on day of fourth treatment

SMILES | retention of leaves by the plants (coffee plant rust) | severity of the disease (coffee plant rust; coffee plants) | 40 d.a.a. % green relative to control (rust in garlic plants; 40 d.a.a.) | 40 d.a.a.: % green (rust in garlic plants; 40 d.a.a.) | Day 0 % of infected area (rust in garlic plants; baseline before spraying) | Effectiveness in eradicating relative to control (rust in garlic plants; six days after fifth application) | % of infected area (rust in garlic plants; six days after fifth application, 300 liter/ha) | % area infected by rust (rust in green onions; [1]) | Efficacy of treatment, % (rust in green onions; [1]) | % area infected by rust (rust in green onions; [2]) | Efficacy of treatment, % (rust in green onions; [2]) | % area infected by rust (rust in green onions; [3]) | Efficacy of treatment, % (rust in green onions; [3]) | % area infected by rust (rust in green onions; first evaluation, before treatment) | % area infected by rust (rust in green onions; [4]) | Efficacy of treatment, % (rust in green onions; [4]) | % area infected by rust (rust in green onions; [5]) | Efficacy of treatment, % (rust in green onions; [5])
CC(C)(C)C(O)(CCc1ccc(Cl)cc1)Cn1cncn1 (stereo not drawn) [tebuconazole] | higher retention of leaves | overall lower severity of the disease |  |  |  |  |  |  |  |  |  |  |  |  |  |  |  | 
[Cu+2].[OH-].[OH-] [Copper hydroxide, copper hydroxide] |  |  | 206.1% | 60.0 a % | 0.2 a % | 53.0 | 27.0 b % | 8.5 b % | 70.3% | 12.5 b % | 76.9% | 18.7 b % | 75.1% | 0.3 a % | 1.8 ab % | 62.1% | 2.5 b % | 79.2%
